US8173157B2, “Pharmaceutical composition comprising phenylamidine derivative and method of using the pharmaceutical composition in combination with antifungal agent” (Toyama Chemical Co., Ltd., priority 2006, dated 2012)
Numbered stars: 1 amine (or outer) side, 2 acyl side, 3 side chain; on linkers, the order of the positions; unused ones are H or OH. Bridge positions count the residues as written; N and C are the ends. Square brackets hold non-standard residues; d marks the D form. Peptide text beside a SMILES is read from it. * marks the point of attachment. hTyr(3S-OH,4S-OH,3'-OSO3H) = N[C@H](C(=O)O)[C@H](O)[C@@H](O)c1ccc(O)c(OS(=O)(=O)O)c1; Orn(4R-OH,5R-OH) = O=C([C@H](C[C@@H](O)[C@@H](O)N[*:3])N[*:1])[*:2]; Pro(3S-OH,4S-Me) = C[C@H]1CN[C@H](C(=O)O)[C@H]1O; X1 = CCCCCOc1ccc(-c2cc(-c3ccc(C(=O)*)cc3)no2)cc1; Gln(3R-OH) = NC(=O)C[C@@H](O)[C@H](N)C(=O)O; Hyp = O=C(O)[C@@H]1C[C@@H](O)CN1

Tests used:
[1] = test system: Candida albicans TIMM1623; assay: In vivo test: murine systemic infection caused by Candida albicans; settings: ICR mice, day 21 after infection, once daily, 7 times
Protocol: In vivo activity was evaluated in murine systemic infection caused by Candida albicans.
(§1) Mice (4-week old (at infection) male ICR mice, 5 mice per group) were intraperitoneally administered 200 mg/kg of cyclophosphamide 4 days before infection and 100 mg/kg on the following day after infection. Candida albicans TIMM1623, which were prepared from overnight culture on a Sabouraud Dextrose Agar plate at 35° C., were suspended in sterile physiological saline solution. After counting cell number of the suspension with a biological microscope, the suspension was diluted with sterile physiological saline solution to give the inoculum solution. Systemic infection was induced in mice by intravenous inoculation of 0.2 mL of the inoculum solution into the tail vein (2.6×10^4 CFU/mouse).
(§2) The test compound was dissolved in a small amount of 0.1 mol/L hydrochloric acid, and the solution was diluted with sterilized water to prepare predetermined concentrations.
Fluconazole (a commercial name: FLANOS intravenous drip solution 100 mg, made by Toyama Chemical Co., Ltd.) was diluted with sterilized water to prepare fluconazole solutions of predetermined concentrations.
Micafungin sodium (a commercial name: Funguard 50 mg for infusion, made by Astellas Pharma Inc.) was dissolved in sterile physiological saline solution to prepare micafungin solutions of predetermined concentrations.
Amphotericin B for injection (a commercial name: FUNGIZONE, made by Bristol pharmaceutical Ltd.) was dissolved in 5% glucose to prepare an amphotericin B solution of a predetermined concentration.
The test compound (0.25 and 0.5 mg/kg) and fluconazole (0.25 and 0.5 mg/kg) were orally administered. Micafungin (0.125 and 0.25 mg/kg) and amphotericin B (0.1 mg/kg) were subcutaneously administered. These administrations were conducted once 2 hours after the infection and then once daily for the following 6 days, totaling 7 times.
On one hand each of the agents was administered singly, on the other hand each of the agents was administered immediately after the test compound was administered.
The efficacy was evaluated on the basis of the survival rate on day 21 after infection.

[2] = test system: Aspergillus fumigatus IFM46895; assay: In vivo test: murine systemic infection caused by Aspergillus fumigatus; settings: for Survival rate: ICR mice, day 21 after infection, once daily, 7 times
Protocol: In vivo activity was evaluated in murine systemic infection caused by Aspergillus fumigatus.
Mice (4-week old (at infection) male ICR mice, 5 mice per group) were intraperitoneally administered 200 mg/kg of cyclophosphamide 4 days before infection and 100 mg/kg on the following day after infection. Conidia suspension of Aspergillus fumigatus IFM46895 was diluted with sterile physiological saline solution containing 0.05% Tween 80 (manufactured by Difco Laboratories) in sterile physiological saline solution to give the inoculum solution. Systemic infection was induced in mice by intravenous inoculation of 0.2 mL of the inoculum solution into the tail vein (1.6×10^5 CFU/mouse).
as §2
Flucytosine (made by Sigma Company) was suspended in 0.5% methyl cellulose liquid to prepare predetermined concentrations for administration.
Voriconazole (a commercial name: Vfend 200 mg for intravenous use, made by Pfizer Inc.) was diluted with sterilized water to prepare voriconazole solutions of predetermined concentrations for administration.
The test compound (1 and 3 mg/kg), flucytosine (50 and 250 mg/kg) and voriconazole (5 and 10 mg/kg) were orally administered. The administrations were conducted once 2 hours after the infection and then once daily for the following 6 days, totaling 7 times.
(§3) On one hand each of the agents was administered singly, on the other hand each of the agents was administered immediately after the test compound was administered. The efficacy was evaluated on the basis of the survival rate on day 21 after infection.

[3] = test system: Aspergillus fumigatus IFM46895; settings: general statement ("as usual"); cited from earlier work
[4] = test system: Cryptococcus neoformans ATCC90112; assay: In vivo test: murine systematic infection caused by Cryptococcus neoformans; settings: ICR mice, day 21 after infection, once daily, 7 times
Protocol: In vivo activity was evaluated in murine systematic infection caused by Cryptococcus neoformans.
as §1, with “Cryptococcus neoformans ATCC90112 cells,” for “Candida albicans TIMM1623,”, “Systematic” for “Systemic”, “injection” for “inoculation”, “(8.5×10^4” for “(2.6×10^4”
The test compound was dissolved in a small amount of 0.1 mol/L hydrochloric acid, and the solution was diluted with sterilized water to prepare predetermined concentrations. […]
as §3

[5] = Toxicity on consecutive oral administration to mice; format: in vivo; settings: orally administered consecutively at 25 mg/kg for 2 weeks

SMILES: C[C@@H]1[C@H](O)[C@@H](C)/C=C/C=C/C=C/C=C/C=C/C=C/C=C/[C@H](O[C@@H]2O[C@H](C)[C@@H](O)[C@H](N)[C@@H]2O)C[C@@H]2O[C@](O)(C[C@@H](O)C[C@@H](O)[C@H](O)CC[C@@H](O)C[C@@H](O)CC(=O)O[C@H]1C)C[C@H](O)[C@H]2C(=O)O [AMPH-B, amphotericin B]
- Survival rate ([1]; AMPH-B 0.1 mg/kg subcutaneously): 20

SMILES: Nc1[nH]c(=O)ncc1F [Example 5-FC, flucytosine]
- Survival rate ([2]; 5-FC 250 mg/kg orally): 0
- Therapeutic effect ([2]; murine systemic infection, flucytosine 250 mg/kg administered singly): no therapeutic effect
- Effect against Aspergillus fumigatus [3]: almost no effect

SMILES: OC(Cn1cncn1)(Cn1cncn1)c1ccc(F)cc1F [FLCZ, fluconazole]
- Survival rate ([4]; FLCZ 20 mg/kg orally): 20
- Survival rate ([1]; FLCZ 0.25 mg/kg orally): 20
- Survival rate ([1]; FLCZ 0.5 mg/kg orally): 40

SMILES: CCCCCOc1ccc(-c2cc(-c3ccc(C(=O)N[C@H]4C[C@@H](O)[C@@H](O)NC(=O)[C@@H]5[C@@H](O)[C@@H](C)CN5C(=O)[C@H]([C@H](O)CC(N)=O)NC(=O)[C@H]([C@H](O)[C@@H](O)c5ccc(O)c(OS(=O)(=O)O)c5)NC(=O)[C@@H]5C[C@@H](O)CN5C(=O)[C@H]([C@@H](C)O)NC4=O)cc3)no2)cc1 [MCFG, micafungin] (X1-[Orn(4R-OH,5R-OH)]T[Hyp][hTyr(3S-OH,4S-OH,3'-OSO3H)][Gln(3R-OH)][Pro(3S-OH,4S-Me)]; lactam 1-C)
- Survival rate ([1]; MCFG 0.125 mg/kg subcutaneously): 0
- Survival rate ([1]; MCFG 0.25 mg/kg subcutaneously): 40

SMILES: CCCCOC(=O)N=C(N)c1ccc(OCCCC2CCN(CCCOc3ccc(C(N)=NC(=O)OCCCC)cc3)CC2)cc1 [Test compound, 4-{3-[4-(3-{4-[amino(butoxycarbonylimino)methyl]phenoxy}propyl)-1-piperidinyl]propoxy}-N′-(butoxycarbonyl)benzamidine]
- Survival rate ([4]; test compound 1 mg/kg orally): 0
- Survival rate ([1]; test compound 0.5 mg/kg orally): 0
- Survival rate ([2]; test compound 1 mg/kg orally): 0
- Survival rate ([2]; test compound 3 mg/kg orally): 20
- Toxicity [5]: did not show toxicity at all

SMILES: C[C@@H](c1ncncc1F)[C@](O)(Cn1cncn1)c1ccc(F)cc1F [VCZ, voriconazole]
- Survival rate ([2]; VCZ 10 mg/kg orally): 0
